The values that follow come from ChEMBL document CHEMBL5729147, “Inhibitors of plasma kallikrein and uses thereof” (2022).

Where only a bound is given, the exact number is not on record here.

The target in this assay is Plasma kallikrein (Homo sapiens, UniProt P03952). In words: Inhibitory Activity Assay: Example compounds were evaluated for inhibition of the human activated kallikrein enzyme in two formats of an assay employing a fluorogenic peptide substrate. In one assay format, the concentrations of reagents were as follows: 20 mM Tris pH 7.5, 1 mM EDTA, 150 mM sodium chloride, 0.1% PEG-400, 0.1% Triton X-100, 500 pM activated kallikrein enzyme, 300 uM Pro-Phe-Arg-7-amido-4-methylcoumarin substrate. Prior to reaction initiation with substrate, enzyme and inhibitors were preincubated for 30 min at RT. After initiation with substrate, reactions were incubated for 10 min at RT and fluorescence emission at 460 nm from 380 nm excitation measured with a microplate reader. In another assay format, the concentrations of reagents were as follows: 20 mM Tris pH 7.5, 1 mM EDTA, 150 mM sodium chloride, 0.1% PEG-400, 0.1% Triton X-100, 5 pM activated kallikrein enzyme, 300 uM Pro-Phe-Arg-7-amido-4-methylcoumarin substrate. Prior to reaction initiation with substrate, enzyme and inhibitors were preincubated for 30 min at RT. After initiation with substrate, reactions were incubated for 18 h at RT and fluorescence emission at 460 nm from 380 nm excitation measured with a microplate reader.
Chain of Plasma kallikrein (P03952 20-390 limits assumed): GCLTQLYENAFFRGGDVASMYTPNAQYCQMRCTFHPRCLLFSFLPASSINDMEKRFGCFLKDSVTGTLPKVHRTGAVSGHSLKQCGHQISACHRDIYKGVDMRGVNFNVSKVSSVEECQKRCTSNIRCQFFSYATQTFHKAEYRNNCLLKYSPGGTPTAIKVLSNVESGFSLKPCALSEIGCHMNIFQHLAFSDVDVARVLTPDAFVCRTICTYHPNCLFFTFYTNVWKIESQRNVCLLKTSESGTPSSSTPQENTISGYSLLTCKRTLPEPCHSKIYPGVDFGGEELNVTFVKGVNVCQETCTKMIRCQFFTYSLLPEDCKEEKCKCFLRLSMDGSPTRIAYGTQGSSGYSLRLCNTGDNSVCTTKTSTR
Chain of Plasma kallikrein (P03952 391-638 limits assumed): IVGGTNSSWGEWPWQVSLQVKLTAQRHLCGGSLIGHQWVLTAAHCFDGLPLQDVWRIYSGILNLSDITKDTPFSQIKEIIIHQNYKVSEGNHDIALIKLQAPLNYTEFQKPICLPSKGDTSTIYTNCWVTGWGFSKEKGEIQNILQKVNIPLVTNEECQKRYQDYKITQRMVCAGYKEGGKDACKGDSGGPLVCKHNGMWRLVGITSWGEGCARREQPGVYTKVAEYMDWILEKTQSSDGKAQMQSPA

By EC50 is commonly meant the concentration giving half of the maximal effect. Low readings indicate a more potent agent, high ones a less potent agent. `O=C(NCc1ncn2ccc(Cl)cc12)c1cnn(Cc2cc3cc(C4CC4)ccn3n2)c1`: the EC50 was < 1 nM.
